{
  "source": "patent US4590161A",
  "about": "“Microbiologically produced L-phenylalanine-dehydrogenase, process for its recovery and use” (priority 1983, dated 1986)",
  "key": {"[1]": {"tested_on": "L-phenylalanine-dehydrogenase", "test": "Photometric test of reductive amination (decrease of NADH at 340 nm)", "details": "purified PheDH (0.055 mg protein/ml), pH 8.5, 0.2 mM NADH, 0.7M ammonium chloride", "quoted_text": "The enzyme activity is determined with a photometric test, by measuring the decrease of the adsorption of NADH at 340 nm. […] The reaction rate of the catalyzed reaction is measured in relation of pH. […] If the substrate concentration of the aromatic α-ketocarboxylic acids or of the aromatic L-aminocarboxylic acids is small compared to their Km value then the reaction rate depends linearly on the substrate concentration.\nThe relationship of the speed of reaction of the reductive amination of phenyl pyruvate to L-phenylalanine for the substrate NADH was investigated in the following test mixture:\nThe dependency of the speed of reaction of the reductive amination of phenyl pyruvate to L-phenylalanine on the ammonium ion concentration was investigated in the following test mixture."}, "[2]": {"tested_on": "L-phenylalanine-dehydrogenase", "test": "Batch reductive amination of α-ketocarboxylic acids with NADH regeneration by formate-dehydrogenase, product on aminoacid analyzer", "assay_type": "biochemical, Brevibacterium species DSM 2448", "description": "In order to regenerate the NADH consumed in the reductive amination there was added to the reaction mixture an excess of ammonium formate and the enzyme formate-dehydrogenase (E.C. 1.2.1.2) which in the oxidation of formate to CO2 reduces the cosubstrate NAD^+ to NADH.\nThe test mixture contained thereby uniformly 400 mM of ammonium formate (pH 8.5), 0.3 mM NADH, 0.6 U/ml formate-dehydrogenase (prepared according to Kroner et al (1982), J. Chem. Tech. Biotechnol, Volume 32, pages 130 to 137), 0.5 U/ml L-phenylalanine-dehydrogenase, 25 mM α-ketocarboxylic acid. The total volume was 3 ml. The incubation was carried out with stirring at 27° C. The product formation in each case was followed on the aminoacid analyzer."}, "[3]": {"tested_on": "L-phenylalanine-dehydrogenase", "test": "Continuous production of L-phenylalanine in enzyme membrane reactor with PEG-NADH", "assay_type": "biochemical, Brevibacterium species DSM 2448", "details": "over 110 hours, residence time 2.5 hours, 20 mM phenyl pyruvate", "description": "It is possible to continuously synthesize phenalyalanine from phenyl pyruvate in an enzyme membrane reactor using molecular weight enlarged NADH bound to polyethylene glycoe (PEG). The PEG-NADH was produced according to German Pat. No. 2,841,414. The modified coenzyme and the enzyme formate-dehydrogenase employed and L-phenylalanine-dehydrogenase were retained in the reactor by an ultrafiltration membrane YM5 (product of the Amicon Company, Witten) while the lower molecular weight components of the reaction solution, unreacted substrate and the L-phenylalanine formed were continuously removed from the reactor. The reactor volume was held constant while phenyl pyruvate and ammonium formate were metered in from a reservoir to the same extent that the ultrafiltrate left the reactor. The reactor volume was 10 ml, the concentration of PEG-NADH 0.3 mM. There were injected into the reactor 20 units of formate-dehydrogenaseand 20 units of L-phenylalanine-dehydrogenase. […]\nThe reaction solution was continuously circulated over the membrane at 30 ml/hour with a peristaltic pump. […] The ultrafiltrate was collected in fractions and the content of L-phenylalanine determined on the aminoacid analyzer. Over a time span of 110 hours on the average 70% of the phenyl pyruvate was converted to L-phenylalanine, in the combined ultrafiltrates there were measured 6.9 mmoles (1.14 grams) of L-phenylalanine. […]"}, "[4]": {"details": "25 mM α-ketocarboxylic acid, 0.5 U/ml enzyme, 27° C., 2 hours"}, "[5]": {"details": "25 mM α-ketocarboxylic acid, 0.5 U/ml enzyme, 27° C., 6 hours"}},
  "data": [
    {"compound": "O=C(O)C(=O)Cc1ccccc1", "note": "[Phenylpyruvate, Phenyl pyruvic acid]", "values": [
      {"measurement": "Km", "setting": "[1]", "result": 110, "unit": "µM"},
      {"measurement": "Vmax", "setting": "[1]", "result": 1.82, "unit": "U/ml"},
      {"measurement": "Product Formation after 2 hours, %", "setting": "[2]; [4]", "result": 50, "unit": "%"},
      {"measurement": "Product Formation after 2 hours, mM", "setting": "[2]; [4]", "result": "12,5 mM"},
      {"measurement": "Product Formation after 6 hours, %", "setting": "[2]; [5]", "result": 66, "unit": "%"},
      {"measurement": "Product Formation after 6 hours, mM", "setting": "[2]; [5]", "result": "16,6 mM"},
      {"measurement": "Utilization as a substrate", "setting": "[2]; result in words", "result": "converted well"},
      {"measurement": "phenyl pyruvate converted to L-phenylalanine, on the average", "setting": "[3]", "result": 70, "unit": "%"}
    ]}
  ]
}
